Assay [1] has as its system CMYC G4. Put plainly: TOPRO3 fluorescent intercalator displacement (FID) assay, CMYC G4. Format: binding. As to conditions: GA 10 µM, relative to GA-free control, CMYC promoter G4. On the procedure: (§1) G4-oligonucleotides listed in Supplementary Table S3 were purchased from Integrated DNA Technologies (Clareville, IA, USA). All of them were dissolved in G4s buffer (10 mM potassium phosphate, 100 mM potassium chloride at pH 7.0), heated at 95 °C for 10 min, slowly cooled to RT, and stored at 4 °C.
(§2) We used TOPRO3 (T3605, Thermo Scientific, MA, USA) as a fluorescent intercalator for FID assays. In particular, […] TOPRO3 was incubated with […] prefolded G4s and exposed to 10 µM GA in 96-well plates. TOPRO3 was excited at 642 nm, and emission profile was monitored between 650–800 nm with Infinite M200 Plate Reader (Tecan). Fluorescence values were calculated as follows: %Fluorescence = A/B × 100; where (A) is the fluorescence value in presence of GA, and (B) corresponds to the fluorescence value in GA-free controls. All assays were conducted in triplicate. The G4-oligonucleotides used in the current study are listed in Supplementary Table S3.

Assay [2] has as its system 5′ETS G4. Briefly: TOPRO3 fluorescent intercalator displacement (FID) assay, 5′ETS G4. The class given is binding. As to conditions: GA 10 µM, relative to GA-free control. On the procedure:
as §1, §2

The test system of assay [3] is SW620 cells. Put plainly: Resazurin cytotoxic assay, metastatic SW620. Format: cell-based, human. As to conditions: 48 h, mean ± SD. On the procedure: (§3) CRL1790, SW480 and SW620 cell lines were purchased from American Type Culture Collection (ATCC). Cells were cultured at 37 °C with 5% CO2 atmosphere in medium supplemented with 10% fetal bovine serum (10270106, Gibco, Waltham, MA, USA), 10 mg/mL penicillin, 10 mg/mL streptomycin, […] amphotericin, and 0.03% L-Glutamine as recommended by the ATCC. MEM medium (M5650, Merck, Darmstadt, Germany) was used for non-tumoral CRL1790, and RPMI 1640 medium (L0501-500, Biowest, Nuaillé, France) was used for both tumoral SW480 and SW620 cell lines.
(§4) Cytotoxic activity was screened using Resazurin Fluorimetric Assay (R7017, Merck, Darmstadt, Germany), according to the manufacturer’s protocol. Cells seeded into 96-well plates (8 × 10^3 cells/well) were treated for 48 h with phenolic compounds at increasing concentrations from 2 × 10^−5 µM to 100 µM. Negative control with vehicle DMSO was included. Fluorescence was determined using Nanoquant Infinite M200 Pro multi-plate reader (Tecan). Half-maximal inhibitory concentration (IC50) values were determined in triplicate by non-linear regression with Graphpad (Prism).
(§5) Natural products such as phenolic compounds have recently attracted significant attention for their anticancer properties. […] We used three different cell lines to mimic CRC progression. In particular, CRL1790 are colon epithelial cells simulating the non-tumoral stage. In addition, SW480 is Dukes’ type B colorectal adenocarcinoma cells representing the primary tumor. Finally, SW620 constitutes Dukes’ type C colorectal adenocarcinoma derived from metastasic site cells to mimic the most aggressive metastasic stage. […] Cytotoxic potency upon 48 h treatment with phenolic compounds was examined by determination of half-maximal inhibitory concentration (IC50) values using the Resazurin method (Table 1). Only GA inhibited cell growth in SW480 and SW620 at clinically-relevant concentrations (IC50 values lower than 30 µM).

Assay [4] relates to 5′ETS (DNA, G4) GGGGGGCGGGTGGTTGGG
Put plainly: circular dichroism. As to conditions: 100 mM KCl, 10 mM potassium phosphate; pH 7.0, 25 °C; 10 µM DNA, 100 µM GA; positive band decreased, no induced CD. (CD spectra are sensitive to the conformation of chiral molecules.)

The subject of assay [5] is SW480 cells. Put plainly: Immunofluorescence of nucleolar proteins (NCL, FBL, POLR1A). As to conditions: SW480, GA IC50 for 6 h. Format: cell-based, human. As for the experimental part: Cells were seeded on 13 mm circular coverslips and placed in 24-well plates. After exposure to different experimental conditions, fixation was performed with 4% (v/v) paraformaldehyde (P6148, Merck, Darmstadt, Germany) for 10 min at room temperature (RT), permeabilization with 0.1% (v/v) Triton-X100 (T8787, Merck, Darmstadt, Germany) for 10 min and blocking with 10% bovine serum albumin (A7906, Merck, Darmstadt, Germany) containing 0.5% (v/v) Triton-X100 for 30 min at RT. Primary antibodies were incubated for 1 h at RT and secondary antibodies for 30 min at 4 °C in darkness. Finally, all coverslips were mounted onto slides (J2800AMNZ, Thermo scientific, Waltham, MA, USA), including DAPI (4′,6-diamidino-2-phenylindole) for nuclear counterstain. Images were acquired on a Confocal Zeiss LSM 710 inverted microscope with a 63× immersion objective. In a different manner, BG4 immunofluorescence was conducted as previously described. BG4 mean nuclear fluorescence intensity was quantified using Fiji software (N > 250). Antibodies used are listed in Supplementary Table S1.
GA is widely present in the plant kingdom and largely found in different food sources. According to its cytotoxic activity (shown above), cell cycle analysis was performed on SW480 cells by FACS with propidium iodide staining (Figure 1C). After GA IC50 treatment for 24 h, the frequency of cells at different stages of the cell cycle changed with respect to non-treated cells (45.34% of cells at G1, 34.16% at S, 7.65% at G2/M). […] To explore this hypothesis, we determined the intracellular localization of nucleolar proteins by immunofluorescence of SW480 cells treated with GA IC50 for 6 h because we had previously observed that some DNA-binding compounds affect nucleolar organization. In particular, we analyzed three proteins that are indicative of nucleolus status, such as nucleolin (NCL), fibrillarin (FBL), and Pol I catalytic subunit A (POLR1A) (Figure 1D).

Assay [6] concerns CMYC (CD and UV-vis oligonucleotide) (DNA, G4) TGGGGAGGGTGGGGAGGGTGGGGAAGG
Briefly: circular dichroism. As to conditions: 100 mM KCl, 10 mM potassium phosphate; pH 7.0, 25 °C; 10 µM DNA, 100 µM GA; positive band decreased, no induced CD.

Assay [7] concerns 5′ETS (DNA, G4) GGGGGGCGGGTGGTTGGG
Briefly: UV-vis titration at 265 nm. As to conditions: 100 mM KCl, 10 mM potassium phosphate; pH 7.0, 25 °C; 5 µM DNA; GA to 1:20 DNA:GA.

The test system of assay [8] is CMYC G4. Briefly: PCR-stop assay, CMYC G4. The class given is biochemical. As to conditions: CMYC G4 sequence, GA 0-100 µM.
The subject of assay [9] is CRL1790 cells. Put plainly: Resazurin cytotoxic assay, non-tumoral CRL1790. The class given is cell-based. As to conditions: Homo sapiens, Epithelial cell, CRL1790 non-tumoral colon epithelial cells, 48 h, mean ± SD. On the procedure: as §3, §4, §5
For orientation: The colour change of resazurin is a common sign of viable cells or microbes.

Usually IC50 stands for the concentration needed to halve the response being measured. As usually defined, the Kd is the equilibrium constant for the complex coming apart.

Turning to `O=C(O)c1cc(O)c(O)c(O)c1` [Gallic acid, 3,4,5-trihydroxybenzoic acid], the TOPRO3 fluorescence percentage in assay [1] is recorded as 84.3%; in assay [2], 84.2%. Further, the IC50 in assay [3] was 11.8 ± 1.54 µM; in assay [3] (listed as GA), less than 30 µM; in assay [9], more than 100 µM. For the same molecule, the binding result in [4] and in assay [6] was “yes” throughout. Also, the “nucleolar localization of POLR1A” value in [5] is “significant changes in POLR1A were not observed”. The “nucleolar localization of fibrillarin (FBL)” value in [5] is “segregation of FBL to nucleolar periphery caps”. Moreover, in assay [5], the “nucleolar localization of nucleolin (NCL)” value was “translocation of NCL from the nucleolus to the nucleoplasm”. Also, in [7], the Kd is recorded as 148 µM. The “concentration inhibiting accumulation of amplified products” value in assay [8] amounted to 50 µM.
